Measured values from article PMC4663552, “Identification of Antiviral Agents Targeting Hepatitis B Virus Promoter from Extracts of Indonesian Marine Organisms by a Novel Cell-Based Screening Assay” (Marine Drugs, 2015).
Where two headings read alike, the source gives them in different places.

Legend:
HBV core promoter = test: Cell-based HBV core promoter assay (luciferase reporter, Huh7 GL4.18 CURS_BC_AeUS cells); settings: Hepatitis B virus, Huh-7, 48 h incubation
Description: Huh7 GL4.18 CURS_BC_AeUS cells were seeded at 2 × 10^4 cells per well in a 48-well plate and then treated with 25 µg/mL each extracts 24 h after seeding cells. The treated cells were harvested 48 h post-treatment and then lysed with Cell culture lysis buffer (Promega, Madison, WI, USA). Luciferase activity was measured by using Luciferase assay systems (Promega, Madison, WI, USA). The resulting luminescence was detected as described above.

HBV = test: Anti HBV activity in HepG2.2.15.7 cells (supernatant HBV DNA, real-time qPCR); format: cell-based, Hepatitis B virus; settings: for EC50: Hepatitis B virus, read-out: EC50 (inhibition of the HBV viral DNA release)
Description: (§1) HepG2.2.15.7 cells were seeded at 1 × 10^4 cells per well in a collagen coated 96-well plate (Corning, Corning, NY, USA) and incubated at 37 °C for 24 h before treatment. The tested compound was added to the culture medium at the indicated concentrations. The culture medium was exchanged every 3 days for fresh medium containing the compound. The treated cells and culture supernatants were harvested 9 days post-treatment and were subjected to MTS assay and estimation of HBV DNA, respectively. The culture supernatant was mixed with an equal volume of Sidestep lysis and stabilization buffer (Agilent Technologies, Santa Clara, CA, USA). The viral DNA included in the mixture was estimated by real-time quantitative PCR using the THUNDERBIRD Probe qPCR Mix (TOYOBO, Osaka, Japan). The forward and reverse primers targeting HBV surface region are 5′-[…]-3′ and 5′-[…]-3′, respectively. The fluorogenic probe was 5′-FAM-[…]-TAMRA-3 [40].

[1] = Cytotoxicity in HepG2.2.15.7 cells (MTS assay); format: cell-based; settings: human, 9 days post-treatment, read-out: CC50 (reduction of cell viability)
Description: as §1

Tie2 kinase = test system: Tie2 kinase; design: method as in PMID 15653332; settings: cited from earlier work
MCF-7 cells = test system: MCF-7 cells; design: method as in PMID 18198840; settings: MCF-7 cells (a breast cancer cell line); cited from earlier work
[2] = 216 h, HepG2.2.15.7 cells, 9 days post-treatment, supernatant HBV DNA

Row | SMILES | IC50 (HBV core promoter) [nM] | Selectivity Index (CC50/EC50) (HBV; HepG2.2.15.7 cells) | EC50 (HBV; [2]) [nM] | CC50 at 9 days [1] [nM] | Effect on Tie2 kinase activity (Tie2 kinase) | Effect on cell cycle (MCF-7 cells) | EC50 (HBV; HepG2.2.15.7, 216 h) [nM]
1 | Oc1cc(Br)cc(Br)c1Oc1ccc(Br)cc1Br [Compound 1, 3,5-dibromo-2-(2,4-dibromophenoxy)-phenol] | 2300 | 18.2 | 230 ± 70 | 4190 ± 120 | suppressed activity of Tie2 kinase | induces G1 phase cell cycle arrest | –
2 | Oc1cc(Br)c(Br)c(Br)c1Oc1ccc(Br)cc1Br [Compound 2, 3,4,5-tribromo-2-(2,4-dibromophenoxy)-phenol] | 4900 | 12.8 | 800 ± 340 | 10300 ± 3690 | – | – | –
3 | C=C1[C@H](CO)[C@@H](O)C[C@@H]1n1cnc2c(=O)[nH]c(N)nc21 [Entecavir, reference compound] | – | >4761 | – | > 100000 | – | – | 21 ± 3
